Source: PubChem BioAssay (NCI)
Several values for one entry are separate records, joined by “and”; a condition that tells them apart may be missing. Equal values may be shown once.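 In this assay, cells in 96-well plates receive the compound at five concentrations for 48 hours. Endpoints are linearly interpolated between the surrounding concentrations. GI50 = concentration required for 50% inhibition of growth. The concentration for full growth arrest is given as TGI.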

Columns and labels:
Assay in all cases: NCI-60 cell line screen, 48 h
[1] = system: DLD-1 colon
[2] = system: MOLT-4 leukemia
[3] = system: SK-MEL-5 melanoma
[4] = system: SK-OV-3 ovarian
[5] = system: SN12C renal
[6] = system: SW-620 colon
[7] = system: U251 CNS
[8] = system: UACC-257 melanoma
[9] = system: LXFL 529 NSCLC
[10] = system: CAKI-1 renal

COc1cc(C(=O)N[C@H]2CCc3cc(OC)c(OC)c(OC)c3-c3ccc(SC)c(=O)cc32)cc(OC)c1OC
GI50 [1]: 0.0234 µM
TGI [1]: 25 µM and > 100 µM
GI50 [2]: 0.0133 µM
TGI [2]: 25 µM and > 100 µM
TGI [3]: 0.324 µM and 0.0331 µM
TGI [4]: 0.0203 µM
GI50 [5]: 0.0145 µM
TGI [5]: 25 µM and 41.2 µM
TGI [6]: 25 µM and > 100 µM
TGI [7]: 0.0812 µM
TGI [8]: 19.1 µM and > 100 µM

CCOC(=O)C1Cc2ccc3c4c(ccc(c24)C1)CC(C(=O)OCC)C3
TGI [1]: > 100 µM
TGI [2]: > 100 µM
TGI [3]: > 100 µM
TGI [4]: > 100 µM
TGI [5]: > 100 µM
TGI [6]: > 100 µM
TGI [7]: > 100 µM
TGI [8]: > 100 µM

COC(=O)c1cc(=O)nc2cc3cccccc3n12
TGI [1]: > 100 µM
TGI [9]: > 100 µM
TGI [2]: > 100 µM
TGI [3]: > 100 µM
TGI [4]: > 100 µM
TGI [5]: > 100 µM
TGI [6]: > 100 µM
TGI [7]: > 100 µM
TGI [8]: > 100 µM

CCOC(=O)c1sc(-c2ccc(OS(=O)(=O)C[C@]34CCC(CC3=O)C4(C)C)c(C=O)c2)nc1C
GI50 [10]: 0.667 µM
TGI [10]: 2.67 µM
GI50 [2]: 0.797 µM
TGI [2]: 2.22 µM
GI50 [3]: 0.877 µM
TGI [3]: 1.59 µM
GI50 [4]: 1.3 µM
TGI [4]: 4.09 µM
GI50 [5]: 1.41 µM
TGI [5]: 4.58 µM
GI50 [6]: 1.04 µM
TGI [6]: 2.69 µM
GI50 [7]: 0.694 µM
TGI [7]: 1.43 µM
GI50 [8]: 1.26 µM
TGI [8]: 3.66 µM

CSc1ncnc2c1ncn2CC(=O)C1CCC2C3CCC4=CC(=O)CCC4(C)C3CCC12C (configuration not stated)
TGI [10]: > 70.2 µM
TGI [2]: 4.93 µM
TGI [3]: 5.15 µM
TGI [4]: > 100 µM
TGI [5]: > 93.8 µM
TGI [6]: > 100 µM
TGI [7]: 42.4 µM
TGI [8]: 6.09 µM

CC(=O)c1cccc(NC(=O)C(=O)c2c(O)c3ccccc3oc2=O)c1
TGI [10]: > 100 µM
TGI [2]: > 100 µM
TGI [3]: > 100 µM
TGI [4]: > 100 µM
TGI [5]: > 100 µM
TGI [6]: > 100 µM
TGI [7]: > 100 µM
TGI [8]: > 100 µM

C/C(=C(/c1ccccc1)c1ccc(OCC(O)CNCCN2CCOCC2)cc1)c1ccccc1 (configuration not stated)
GI50 [10]: 1.67 µM
TGI [10]: 3.49 µM
GI50 [2]: 2.13 µM
TGI [2]: 5.41 µM
GI50 [3]: 1.77 µM
TGI [3]: 3.19 µM
GI50 [4]: 11.1 µM
TGI [4]: 24.8 µM
GI50 [5]: 5.08 µM
TGI [5]: 18.5 µM
GI50 [6]: 1.77 µM
TGI [6]: 3.36 µM
GI50 [7]: 2.03 µM
TGI [7]: 4.52 µM
GI50 [8]: 2.02 µM
TGI [8]: 4.07 µM

CN(Cc1ccc(F)cc1)c1ccc(CO)c(Cl)c1
GI50 [10]: 2.49 µM
TGI [10]: 45.8 µM
GI50 [2]: 21.8 µM
TGI [2]: 69.3 µM
GI50 [3]: 8.6 µM
TGI [3]: 22.8 µM
GI50 [4]: 12.2 µM
TGI [4]: 70.9 µM
GI50 [5]: 23.2 µM
TGI [5]: > 100 µM
GI50 [6]: 5.14 µM
TGI [6]: > 100 µM
GI50 [7]: 4.63 µM
TGI [7]: 68.5 µM
GI50 [8]: 0.439 µM
TGI [8]: 1.66 µM

COc1ccc(-c2c(C#N)c(N)nc(N3CCOCC3)c2C#N)cc1
GI50 [10]: 13 µM
TGI [10]: 31.8 µM
GI50 [2]: 27.7 µM
TGI [2]: > 100 µM
GI50 [3]: 19.1 µM
TGI [3]: 45.9 µM
GI50 [4]: 4.99 µM
TGI [4]: 27.3 µM
GI50 [5]: 25.7 µM
TGI [5]: > 100 µM
GI50 [6]: 50.3 µM
TGI [6]: > 100 µM
GI50 [7]: 27.4 µM
TGI [7]: > 100 µM
GI50 [8]: 23.9 µM
TGI [8]: 82.1 µM

Nc1c(C(=O)c2cccc(C#CCN3CCCCC3)c2)cnn1-c1ccc(F)cc1
GI50 [10]: > 25 µM
TGI [10]: > 25 µM
GI50 [2]: 21.2 µM
TGI [2]: > 25 µM
GI50 [3]: 9.59 µM
TGI [3]: > 25 µM
GI50 [4]: > 25 µM
TGI [4]: > 25 µM
GI50 [5]: 24.4 µM
TGI [5]: > 25 µM
GI50 [6]: > 25 µM
TGI [6]: > 25 µM
GI50 [7]: > 25 µM
TGI [7]: > 25 µM
GI50 [8]: > 24.1 µM
TGI [8]: > 25 µM

CCCCCCCCCc1ccc(OCCOCCOCCOCCOCCOCCOCCOCCOCCO)cc1
GI50 [10]: 0.478 µM
TGI [10]: 5.75 µM
GI50 [2]: 0.704 µM
TGI [2]: 2.15 µM
GI50 [3]: 0.136 µM
TGI [3]: 0.643 µM
GI50 [4]: 0.991 µM
TGI [4]: 2.45 µM
GI50 [5]: 0.61 µM
TGI [5]: 1.59 µM
GI50 [6]: 1.19 µM
TGI [6]: 5.55 µM
GI50 [7]: 0.458 µM
TGI [7]: 1.25 µM
GI50 [8]: 0.0567 µM
TGI [8]: 0.812 µM

C#CCN(N=O)C(=O)ON1C(=O)CCC1=O
TGI [1]: > 100 µM
TGI [9]: > 100 µM
TGI [2]: > 100 µM
TGI [3]: > 100 µM
TGI [4]: > 100 µM
TGI [5]: > 100 µM
TGI [6]: > 100 µM
TGI [7]: > 100 µM
TGI [8]: > 100 µM

O=C(CC1(O)C(=O)Nc2ccc(F)cc21)c1ccc(C(=O)NCC2CCC3(CC2)OOC2(CCCCC2)OO3)cc1 (configuration not stated)
GI50 [10]: 14 µM
TGI [10]: 27.7 µM
GI50 [2]: 3.72 µM
TGI [2]: 28.8 µM
GI50 [3]: 3.69 µM
TGI [3]: 14.4 µM
GI50 [4]: 14.1 µM
TGI [4]: 31.9 µM
GI50 [5]: 10.8 µM
TGI [5]: 33.6 µM
GI50 [6]: 7.72 µM
TGI [6]: 27.4 µM
GI50 [7]: 3.18 µM
TGI [7]: 11.3 µM
GI50 [8]: 12.7 µM
TGI [8]: 29.9 µM

Cn1c(=O)n(C)c2cc(CNCCNc3ccnc4cc(Cl)ccc34)ccc21
GI50 [10]: 36.3 µM
TGI [10]: > 100 µM
GI50 [2]: 21.1 µM
TGI [2]: > 100 µM
GI50 [3]: 16.5 µM
TGI [3]: 30.3 µM
GI50 [4]: 72.7 µM
TGI [4]: > 100 µM
GI50 [5]: 45.7 µM
TGI [5]: > 100 µM
GI50 [6]: 34.6 µM
TGI [6]: > 100 µM
GI50 [7]: 22.1 µM
TGI [7]: 72.1 µM
GI50 [8]: 17.6 µM
TGI [8]: 33.3 µM

O=c1c2c(-c3ccccc3)c3ccccc3nc2cnn1-c1ccccc1
TGI [10]: > 100 µM
TGI [9]: > 100 µM
TGI [2]: > 100 µM
TGI [3]: > 100 µM
TGI [4]: > 100 µM
TGI [5]: > 100 µM
TGI [6]: > 100 µM
TGI [7]: > 100 µM
TGI [8]: > 100 µM

COc1cccc(-c2cc(=O)c3cc4c(cc3[nH]2)OCO4)c1
TGI [1]: > 100 µM
TGI [9]: 23.2 µM
TGI [2]: > 100 µM
TGI [3]: 0.327 µM
TGI [4]: 1.15 µM
TGI [5]: > 100 µM
TGI [6]: > 100 µM
TGI [8]: > 100 µM

COc1ccc2c(c1)CN([C@@H](C)[C@H]1CC[C@H]3[C@@H]4CC[C@H]5C[C@@H](O)CC[C@]5(C)[C@H]4CC[C@]13C)CO2
TGI [10]: 13.8 µM
TGI [2]: 2.98 µM
TGI [3]: 3.28 µM
TGI [4]: 3.56 µM
TGI [5]: 22.6 µM
TGI [6]: > 23.6 µM
TGI [7]: 3.35 µM
TGI [8]: 6.31 µM

CCCc1nc(Cl)nc(Cl)c1Cl
TGI [10]: 0.433 µM
TGI [2]: 0.551 µM
TGI [3]: 3.21 µM
TGI [4]: 6.95 µM
TGI [5]: 2.13 µM
TGI [6]: 2.17 µM
TGI [7]: 2.05 µM
TGI [8]: 2 µM

OC1=CN=COc2ccccc21
TGI [1]: > 100 µM
TGI [9]: > 100 µM
TGI [2]: > 100 µM
TGI [4]: > 100 µM
TGI [5]: > 100 µM
TGI [6]: > 100 µM
TGI [7]: > 100 µM
TGI [8]: > 100 µM
